Experimental data from US20070015823A1, “Ambruticin VS compounds” (priority 2004, published 2007).
Values after ≈ are worked out from the molar mass of the structure shown. Where two headings read alike, the source gives them in different places.

Columns and labels:
Candida albicans = conditions: for MIC C. albicans 24433: strain 24433; for MIC C. albicans 24433 / MIC C. albicans 90028: 50% growth inhibition, range = minimum and maximum of multiple assays; for MIC C. albicans 90028 / MIC0 C. albicans 90028: strain 90028; for MIC0 C. albicans 90028: 95% growth inhibition
Histoplasma capsulatum = format: cell-based
Blastomyces dermatitidis = test: Broth microdilution antifungal susceptibility, NCCLS M38-A; format: cell-based
Cryptococcus neoformans = test: as above; conditions: 50% growth inhibition, range = minimum and maximum of multiple assays; for MIC C. neoformans 97-14: strain 97-14; for MIC C. neoformans 11239: strain 11239; for MIC C. neoformans 11240: strain 11240
C. immitis = test: microbe, parasite or virus in culture; format: cell-based, Coccidioides immitis
Candida parapsilosis = conditions: strain 92019; 95% growth inhibition
A. flavus ATCC 204304 = test: Broth microdilution antifungal susceptibility, NCCLS M38-A; format: cell-based, Aspergillus flavus; conditions: minimal concentration inhibiting >95% growth; average of at least two assays (except I-l and I-x)
A. fumigatus ATCC 204305 = test: as above; format: cell-based, Aspergillus fumigatus; conditions: minimal concentration inhibiting >95% growth; average of at least two assays (except I-l and I-x)
C. posadasii = test: microbe, parasite or virus in culture; format: cell-based, Coccidioides posadasii
Candida krusei = conditions: strain 6258; 95% growth inhibition
Fusarium solani = test: Broth microdilution antifungal susceptibility, NCCLS M38-A; format: cell-based; conditions: strain 96-1; 50% growth inhibition; range = minimum and maximum of multiple assays
S. apiospermum = test: as above; format: cell-based, Scedosporium apiospermum
Microsporum canis = test: Dermatophyte broth microdilution, NCCLS M38-A; format: cell-based
[1] = tested on: Trichophyton mentagrophytes; test: Dermatophyte broth microdilution, NCCLS M38-A; format: cell-based
Trichophyton rubrum = test: Dermatophyte broth microdilution, NCCLS M38-A; format: cell-based
Microsporum gypseum = test: Dermatophyte broth microdilution, NCCLS M38-A; format: cell-based
[2] = tested on: Trichophyton interdigitale; test: Dermatophyte broth microdilution, NCCLS M38-A; format: cell-based
Epidermophyton floccosum = test: Dermatophyte broth microdilution, NCCLS M38-A; format: cell-based

C[C@@H]1[C@H](O)[C@@H](C)/C=C/C=C/C=C/C=C/C=C/C=C/C=C/[C@H](O[C@@H]2O[C@H](C)[C@@H](O)[C@H](N)[C@@H]2O)C[C@@H]2O[C@](O)(C[C@@H](O)C[C@@H](O)[C@H](O)CC[C@@H](O)C[C@@H](O)CC(=O)O[C@H]1C)C[C@H](O)[C@H]2C(=O)O [Amphotericin B, reference compound]
MIC C. albicans 24433 (Candida albicans): 2 to 4 µg/mL
MIC C. albicans 90028 (Candida albicans): 2 to 4 µg/mL
MIC0 C. albicans 90028 (Candida albicans): 1 µg/mL
MIC H. capsulatum G217B (Histoplasma capsulatum; strain G217B, 50% growth inhibition): 0.19 µg/mL (≈ 0.206 µM)
MIC H. capsulatum GS20 (Histoplasma capsulatum; strain GS20, 50% growth inhibition): 0.19 µg/mL (≈ 0.206 µM)
MIC B. dermatitidis Gu (Blastomyces dermatitidis; strain Gu, 50% growth inhibition): 2 µg/mL (≈ 2.16 µM)
MIC B. dermatitidis Kr (Blastomyces dermatitidis; strain Kr, 50% growth inhibition): 1 µg/mL (≈ 1.08 µM)
MIC B. dermatitidis V (Blastomyces dermatitidis; strain V, 50% growth inhibition): 1 µg/mL (≈ 1.08 µM)
MIC C. neoformans 97-14 (Cryptococcus neoformans): 0.5 to 2 µg/mL
MIC C. neoformans 11239 (Cryptococcus neoformans): 0.5 to 1 µg/mL
MIC C. neoformans 11240 (Cryptococcus neoformans): 0.5 to 1 µg/mL
MIC C. immitis RMS 2281 (C. immitis; strain RMS 2281, 80% growth inhibition): 1 µg/mL (≈ 1.08 µM)
MIC C. immitis RS (C. immitis; strain RS, 80% growth inhibition): 1 µg/mL (≈ 1.08 µM)
MIC C. immitis S46 (C. immitis; strain S46, 80% growth inhibition): 1 µg/mL (≈ 1.08 µM)
MIC0 C. parapsilosis 92019 (Candida parapsilosis): 1 µg/mL
MIC0 A. flavus ATCC 204304 (A. flavus ATCC 204304): 1.67 µg/mL
MIC0 A. fumigatus ATCC 204305 (A. fumigatus ATCC 204305): 1.53 µg/mL
MIC C. posadasii C735 (C. posadasii; strain C735, 80% growth inhibition): 1 µg/mL (≈ 1.08 µM)
MIC C. posadasii RMSCC 2127 (C. posadasii; strain RMSCC 2127, 80% growth inhibition): 1 µg/mL (≈ 1.08 µM)
MIC C. posadasii Silveria (C. posadasii; strain Silveria, 80% growth inhibition): 1 µg/mL (≈ 1.08 µM)
MIC0 C. krusei 6258 (Candida krusei): 1 µg/mL
MIC F. solani 96-1 (Fusarium solani): 1 to 2 µg/mL
MIC S. apiospermum 94-54 (S. apiospermum; strain 94-54, 50% growth inhibition, range = minimum and maximum of multiple assays): >32 µg/mL
MIC S. apiospermum 98-38 (S. apiospermum; strain 98-38, 50% growth inhibition, range = minimum and maximum of multiple assays): 4 µg/mL (≈ 4.33 µM)
MIC S. apiospermum 98-89 (S. apiospermum; strain 98-89, 50% growth inhibition, range = minimum and maximum of multiple assays): 8 µg/mL (≈ 8.66 µM)

CC[C@H]1O[C@@H](/C(C)=C/[C@H](C)/C=C/[C@H]2[C@@H](C)[C@@H]2/C=C/[C@@H]2O[C@H](CC(=O)O)C[C@H](N(C)C(C)C)[C@H]2O)CC=C1C [I-v, (5S,6R)-5-(N-isoproyl-methylamino)-6-hydroxypolyangioic acid]
MIC C. albicans 24433 (Candida albicans): >32 µg/mL
MIC C. albicans 90028 (Candida albicans): >32 µg/mL
MIC0 Mc (Microsporum canis): 2 µg/mL
MIC H. capsulatum G217B (Histoplasma capsulatum): <0.19 µg/mL
MIC H. capsulatum GS20 (Histoplasma capsulatum): <0.19 µg/mL
MIC0 Blastomyces dermatitidis 04-2167 (Blastomyces dermatitidis): 0.06 µg/mL
MIC0 Blastomyces dermatitidis 04-2508 (Blastomyces dermatitidis): 0.06 µg/mL
MIC0 Blastomyces dermatitidis 04-2915 (Blastomyces dermatitidis): 0.125 µg/mL
MIC0 Blastomyces dermatitidis 05-106 (Blastomyces dermatitidis): 0.03 µg/mL
MIC0 Blastomyces dermatitidis 05-186 (Blastomyces dermatitidis): 0.06 µg/mL
MIC0 Blastomyces dermatitidis 05-1391 (Blastomyces dermatitidis): 0.03 µg/mL
MIC0 Blastomyces dermatitidis 05-1707 (Blastomyces dermatitidis): ≦0.015 μg/mL
MIC0 Blastomyces dermatitidis 05-1820 (Blastomyces dermatitidis): 0.06 µg/mL
MIC0 Blastomyces dermatitidis 05-1829 (Blastomyces dermatitidis): 0.06 µg/mL
MIC0 Blastomyces dermatitidis 05-2020 (Blastomyces dermatitidis): 0.06 µg/mL
MIC0 Blastomyces dermatitidis R-3529 (Blastomyces dermatitidis): 0.063 µg/mL
MIC0 Blastomyces dermatitidis R-35629 (Blastomyces dermatitidis): 0.03 µg/mL
MIC B. dermatitidis Gu (Blastomyces dermatitidis): 12.5 µg/mL (≈ 23.6 µM)
MIC B. dermatitidis Kr (Blastomyces dermatitidis): >12.5 µg/mL
MIC B. dermatitidis V (Blastomyces dermatitidis): 12.5 µg/mL (≈ 23.6 µM)
MIC0 Tm [1]: 4 µg/mL
MIC0 Tr (Trichophyton rubrum): 5.03 µg/mL
MIC C. neoformans 97-14 (Cryptococcus neoformans): 0.5 µg/mL (≈ 0.944 µM)
MIC C. neoformans 11239 (Cryptococcus neoformans): 0.25 µg/mL (≈ 0.472 µM)
MIC C. neoformans 11240 (Cryptococcus neoformans): 0.25 to 0.5 µg/mL
MIC C. immitis RMS 2281 (C. immitis): 0.125 µg/mL (≈ 0.236 µM)
MIC C. immitis RS (C. immitis): 0.25 µg/mL (≈ 0.472 µM)
MIC C. immitis S46 (C. immitis): 0.125 µg/mL (≈ 0.236 µM)
MIC0 A. flavus ATCC 204304 (A. flavus ATCC 204304): 1.1 µg/mL
MIC0 A. fumigatus ATCC 204305 (A. fumigatus ATCC 204305): 1.32 µg/mL
MIC C. posadasii C735 (C. posadasii): 0.25 µg/mL (≈ 0.472 µM)
MIC C. posadasii RMSCC 2127 (C. posadasii): 0.125 µg/mL (≈ 0.236 µM)
MIC C. posadasii Silveria (C. posadasii): 0.25 µg/mL (≈ 0.472 µM)
MIC0 Mg (Microsporum gypseum): 2 µg/mL
MIC F. solani 96-1 (Fusarium solani): >16 µg/mL
MIC S. apiospermum 94-54 (S. apiospermum): >16 µg/mL
MIC S. apiospermum 98-38 (S. apiospermum): >16 µg/mL
MIC S. apiospermum 98-89 (S. apiospermum): 0.25 µg/mL (≈ 0.472 µM)

CC[C@H]1O[C@@H](/C(C)=C/[C@H](C)/C=C/[C@H]2[C@@H](C)[C@@H]2/C=C/[C@@H]2O[C@H](CC(=O)O)C[C@H](N)[C@H]2O)CCC1C (stereo partly drawn) [IV-a, 20,21-dihydro ambruticin VS-5]
MIC2 C. albicans 05-1422 (Candida albicans; strain 05-1422): ≦0.15 μg/mL
growth of Candida albicans strain 05-1422 (Candida albicans; strain 05-1422, statement in words): inhibits growth
MIC2 C. albicans 05-1424 (Candida albicans; strain 05-1424): >10 µg/mL
MIC2 C. albicans 05-1426 (Candida albicans; strain 05-1426): >10 µg/mL
MIC0 C. albicans 90028 (Candida albicans): >32 µg/mL
MIC0 Mc (Microsporum canis): 0.5 µg/mL
MIC2 H. capsulatum 05-959 (Histoplasma capsulatum): ≦0.15 μg/mL
MIC2 H. capsulatum 05-1097 (Histoplasma capsulatum): ≦0.15 μg/mL
MIC2 H. capsulatum 05-1159 (Histoplasma capsulatum): ≦0.15 μg/mL
MIC0 Ti [2]: 0.39 µg/mL
MIC2 B. dermatitidis 05-106 (Blastomyces dermatitidis): ≦0.15 μg/mL
MIC2 B. dermatitidis 05-186 (Blastomyces dermatitidis): ≦0.15 μg/mL
MIC2 B. dermatitidis 05-1291 (Blastomyces dermatitidis): ≦0.15 μg/mL
MIC0 Tm [1]: 1 µg/mL
MIC0 Tr (Trichophyton rubrum): 0.5 µg/mL
MIC0 Ef (Epidermophyton floccosum): 4 µg/mL
MIC2 C. immitis 05-469 (C. immitis): ≦0.15 μg/mL
MIC2 C. immitis 05-955 (C. immitis): ≦0.15 μg/mL
MIC2 C. immitis 05-1387 (C. immitis): ≦0.15 μg/mL
MIC0 C. parapsilosis 92019 (Candida parapsilosis): <0.0625 µg/mL
MIC0 A. flavus ATCC 204304 (A. flavus ATCC 204304): 0.18 µg/mL
MIC0 A. fumigatus ATCC 204305 (A. fumigatus ATCC 204305): 0.85 µg/mL
MIC0 Mg (Microsporum gypseum): 0.5 µg/mL
MIC0 C. krusei 6258 (Candida krusei): >32 µg/mL
